These results are taken from PubChem BioAssay (NCI).

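In this assay, cells in 96-well plates receive the compound at five concentrations for 48 hours. Endpoints are linearly interpolated between the surrounding concentrations. The concentration for 50% growth inhibition is given as GI50. TGI: concentration producing complete growth inhibition.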 A value given as a limit tells only on which side of the number the result lay.

Test in all cases: DTP human tumour cell line panel, 48 h
The test system of test [1] is UACC-62 melanoma.
The subject of test [2] is M14 melanoma.
Test [3] concerns UO-31 renal.
The test system of test [4] is RXF 393 renal.
For test [5], the system named is SN12C renal.
Test [6] concerns U251 CNS.
Test [7] has as its system MDA-MB-435.
For test [8], the system named is HCC-2998 colon.
For test [9], the system named is MALME-3M melanoma.

As for `COC(=O)[C@]1(C)CCCn2c(=O)n(-c3ccccc3)c(=O)n21`, the TGI in test [1], in test [2], in test [3], in test [4], in test [5] and in [6] was over 100 µM in each case. Moreover, the TGI in test [7] and in test [8] was over 100 µM throughout.

For `O=C(NCc1cn(Cc2cccc(Oc3ccccc3)c2)nn1)c1cccnc1Nc1ccccc1`, the GI50 (as a rule, the concentration that inhibits growth by half) was 3.02 µM in test [1]; 16.1 µM in test [9]; 2.86 µM in [2]; 2.49 µM in [3]; 4.3 µM in test [5]; 3.61 µM in test [6]. Further, the GI50 in [8] was 3.7 µM. In addition, the TGI (as a rule, the concentration giving total growth inhibition) is 33.8 µM in [1]; over 100 µM in test [9]; 9.86 µM in test [2]; over 100 µM in [3]; 51.2 µM in [5]; 18.9 µM in [6]. Also, the concentration for total growth inhibition (TGI) in [8] amounted to 21.8 µM.

With `CN1CC(c2ccccc2)=Cc2c1ccc(N)c2N=N`, the TGI in [1], in [9], in test [2], in [3], in test [5] and in test [6] was over 100 µM in each case. The concentration for total growth inhibition (TGI) in test [7] and in [8] was over 100 µM each time.

Turning to `O=C(C=P(c1ccccc1)(c1ccccc1)c1ccccc1)C12CC3CC(CC(C3)C1)C2`, the TGI came out at 29.1 µM in test [1]; 38 µM in [9]; 32.7 µM in test [2]; 27.7 µM in [3]; 32.3 µM in test [5]; 34 µM in test [6]. The TGI came out at 26.6 µM in test [7] and 32.1 µM in [8].

In the case of `Cc1cc(-c2ccc(C(=O)C(Cl)(Cl)Cl)[nH]2)on1`, the TGI in [1] was over 100 µM; in test [9], over 100 µM; in test [2], over 100 µM; in [3] it was 56.7 µM; in [4] it was 41.9 µM; in [5], 43.2 µM. Besides, the results for the TGI in test [6] and in test [7] were 28.7 µM and 70.6 µM, respectively.

For `COc1ccc(C[C@@H]2CN(C(=O)c3ccccc3)[C@H](Cc3ccc(O)cc3)CN2C(=O)c2ccccc2)cc1Br`, the TGI in test [9], in test [2], in test [3], in test [5], in [7] and in test [8] was over 100 µM each time.

On to `CC12CC3c4ccccc4CN1C3(c1ccccc1)OC2=O` (stereo unspecified), for which the TGI in test [1], in test [9], in test [2], in test [3], in test [4] and in test [5] was over 100 µM each time. Moreover, the concentration for total growth inhibition (TGI) in test [6] and in test [7] was over 100 µM throughout.

Consider `COc1ccc(-c2nc3ncccn3c2-c2ccc(S(C)=O)cc2)cc1` (stereo unspecified), for which the concentration for total growth inhibition (TGI) in test [1] was over 100 µM; in test [2], over 100 µM; in test [3], over 100 µM; in test [5], over 100 µM; in test [6], over 100 µM; in test [7], 53.8 µM.

Regarding `CC(C)(C)C1CCC2c3c([nH]c4ccccc34)C3C(=O)N(c4cc(Br)cc(Br)c4)C(=O)C3C2C1` (stereo unspecified), the total growth inhibition concentration (TGI) is over 100 µM in test [1]; over 100 µM in [9]; over 100 µM in test [2]; 46.2 µM in test [3]; 29.1 µM in test [5]; 30.3 µM in test [6]. Moreover, the figures for the TGI in test [7] and in test [8] were 77.2 µM and 24.7 µM, respectively.

Take `Cc1cc(Br)c(N2C3=C(CC4=C2CCCC4=O)C(=O)CCC3)c(Br)c1`: the TGI in test [1] was over 100 µM; in test [2] it was over 100 µM; in test [3] it was over 100 µM; in test [4], 84.7 µM; in [5], over 100 µM; in [6] it was over 100 µM. The TGI in test [8] is over 100 µM.

Take `NCCC1(N)CCNCC1`: the TGI in [1], in test [9], in test [2], in test [3], in test [4] and in [5] was over 100 µM in each case. The concentration for total growth inhibition (TGI) in [6] and in [7] was over 100 µM in each case.

In the case of `COC(=O)C(=O)C(C(=O)C(=O)Nc1ccccc1C(=O)OC)c1nc2ccc(C(=O)c3ccccc3)cc2[nH]c1=O` (stereo unspecified), the TGI in [1], in [9], in [2], in test [3], in [4] and in test [5] was over 100 µM each time. Moreover, the concentration for total growth inhibition (TGI) in [6] and in [7] was over 100 µM each time.

`COc1ccc(-n2sc3ncc(-c4ccccc4)cc3c2=O)cc1`: the TGI in test [1] was over 100 µM; in test [2], over 100 µM; in test [3], 49.7 µM; in test [4], over 100 µM; in test [5], 80.2 µM; in test [6] it was over 100 µM. In addition, the TGI in test [7] and in [8] was over 100 µM in each case.

Turning to `Oc1ccc(-c2cc(-c3c(O)cc(O)cc3O)on2)cc1`, the concentration for total growth inhibition (TGI) in [1], in [9], in [2], in [3], in test [5] and in [6] was over 100 µM each time. For the same compound, the concentration for total growth inhibition (TGI) in [7] and in test [8] was over 100 µM throughout.

Take `O=S(=O)(O)c1ccc(NN(c2c(O)ccc3ccccc23)S(=O)(=O)O)cc1`: the TGI in test [1], in test [9], in test [2], in test [3], in [5] and in test [6] was over 100 µM each time. Also, the total growth inhibition concentration (TGI) in test [7] and in [8] was over 100 µM each time.

For the compound `N#CI1OC(=O)c2ccccc21`, the TGI in test [1], in test [2], in test [3], in test [4], in test [5] and in [6] was over 100 µM each time. Moreover, the TGI in test [7] and in test [8] was over 100 µM throughout.

As to `COc1ccc(C2CC(c3cc4c(C)c(C(=O)c5ccccc5)oc4cc3O)=Nc3ccccc3S2)cc1OC` (stereo unspecified), the TGI is over 85.8 µM in test [1]; over 100 µM in test [9]; over 100 µM in [2]; over 100 µM in [3]; over 100 µM in test [5]; over 100 µM in test [6]. The values for the concentration for total growth inhibition (TGI) in test [7] and in test [8] were 2.05 µM and over 100 µM, respectively.

On to `CCCCCCCCCCCCNC(=O)NCC(OCC)OCC`, for which the TGI in test [1], in test [2], in test [4], in test [5], in [6] and in test [7] was over 10 µM throughout. The compound also came in with a TGI in test [8] of over 10 µM.

For `CCOn1cc(C[C@@]2(O)C(=O)OC3[C@@H](O)CO[C@@]32O)c2ccccc21` (stereo partly specified), the TGI in test [1], in test [9], in test [2], in [3], in [4] and in [5] was over 100 µM throughout. The TGI in test [6] and in [7] was over 100 µM in each case.

As to `COc1c2cc(C(C)(C)C)cc1CSCc1cc(C(C)(C)C)cc(c1OC)CCCCC2`, the concentration for total growth inhibition (TGI) in test [1], in [9], in test [2], in test [3], in [5] and in [6] was over 50 µM each time. Besides, the total growth inhibition concentration (TGI) in test [7] and in test [8] was over 50 µM in each case.

On to `Cc1ccc(N=Nc2c(O)c3ccccc3[nH]c2=O)c(S(=O)(=O)N(C)C)c1`, for which the TGI in test [1], in test [9], in [2], in test [3], in test [4] and in test [5] was over 100 µM each time. In addition, the TGI in test [6] and in test [7] was over 100 µM throughout.

For the compound `COc1ccc2c(c1O)-c1c(OC)c(OC)cc3c1[C@H](C2)[N+](C)(C)CC3`, the TGI in [1], in test [9], in [2], in test [3], in test [5] and in [6] was over 100 µM throughout. Besides, the TGI in [7] and in test [8] was over 100 µM each time.

In the case of `COc1ccc(-n2c(CCCC(=O)O)nc3c2C(=O)c2ccccc2C3=O)cc1`, the total growth inhibition concentration (TGI) is over 100 µM in test [1]; 59.7 µM in test [9]; 39 µM in [2]; over 100 µM in test [3]; over 100 µM in test [5]; over 100 µM in test [6]. The concentration for total growth inhibition (TGI) in test [7] was 78.9 µM; in [8], over 100 µM.

As to `COC(=O)Cc1c([C@@H]2Nc3ccccc3[C@H]2CC(=O)OC)[nH]c2ccccc12`, the concentration for total growth inhibition (TGI) is 34.3 µM in test [1]; 81.6 µM in test [3]; over 100 µM in test [4]; over 100 µM in test [5]; over 100 µM in test [6]; 84.8 µM in test [7]. In addition, the total growth inhibition concentration (TGI) in test [8] was over 100 µM.
